These results are taken from publication PMC6271730, “Bioactive Secondary Metabolites from Phomopsis sp., an Endophytic Fungus from Senna spectabilis” (Molecules, 2014).

This assay concerns the target T1, Myeloperoxidase (MPO, EC 1.11.1.7) (Homo sapiens, UniProt P05164).
T1 construct: commercial purified enzyme (Planta Natural Products, Vienna); mature heavy and light chains come from one precursor
Briefly: MPO chlorination activity, taurine chloramine / TMB oxidation at […] nm. It counts as biochemical.

Like-named read-outs stand apart in the source and are kept apart here.

T1 sequence (P05164 165-273): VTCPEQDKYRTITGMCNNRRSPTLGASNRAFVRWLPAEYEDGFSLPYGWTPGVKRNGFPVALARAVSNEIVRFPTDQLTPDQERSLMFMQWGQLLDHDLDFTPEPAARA
T1 sequence (P05164 279-745): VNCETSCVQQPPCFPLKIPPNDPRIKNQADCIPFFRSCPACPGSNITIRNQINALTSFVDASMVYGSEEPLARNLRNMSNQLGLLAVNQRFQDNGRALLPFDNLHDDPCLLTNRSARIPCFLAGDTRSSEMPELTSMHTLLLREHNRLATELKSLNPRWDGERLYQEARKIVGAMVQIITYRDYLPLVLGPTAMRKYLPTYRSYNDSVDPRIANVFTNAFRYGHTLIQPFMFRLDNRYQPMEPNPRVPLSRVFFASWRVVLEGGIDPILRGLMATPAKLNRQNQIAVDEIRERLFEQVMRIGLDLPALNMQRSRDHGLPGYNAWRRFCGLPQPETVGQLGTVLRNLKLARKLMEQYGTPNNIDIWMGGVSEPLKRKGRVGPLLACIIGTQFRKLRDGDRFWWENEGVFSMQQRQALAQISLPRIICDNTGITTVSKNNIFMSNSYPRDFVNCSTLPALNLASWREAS

As to `COc1cc(O)c2c(=O)oc3cc(O)cc(C)c3c2c1` [compound 4, alternariol monomethyl ether], the IC50 (read-out: IC50) is more than 50 µM.
Consider `Cc1cc(O)cc2oc(=O)c3c(O)cc(O)cc3c12` [compound 5, alternariol], for which the IC50 is more than 50 µM.
